# Experimental data taken from patent publication EP1632243A1 (priority 2003, dated 2004).
# Like-named read-outs stand apart in the source and are kept apart here. Residues, ends and D or L forms follow the SMILES beside them.
# Assays:
# MT-4 cells = experiment: Cytotoxicity to MT-4 cells, MTT method; format: cell-based; settings: 12000ng/ml to 24ng/ml, 6 days
# Protocol: Then test drugs were added. […] Cell growth was subsequently determined by the MTT method.
# in vitro = settings: human, 293 cells
Compound,cell growth (MT-4 cells),inhibition of coronavirus in 293 cell cultures (No.04 coronavirus),treatment index (TI) (No.04 coronavirus),half-inhibitory concentration (IC50) (No.04 coronavirus; 24 h),minimum inhibitory concentration (MIC) (No.04 coronavirus; 24 h),CC50 at 144 h (in vitro),MNTC at 144 h (in vitro),half-inhibitory concentration (IC50) (No.04 coronavirus),minimum inhibitory concentration (MIC) (No.04 coronavirus)
CC(C)C[C@H](NC(=O)[C@H](CCCCN)NC(=O)[C@@H](N)Cc1ccc(O)cc1)C(=O)N1CCC[C@H]1C(=O)NCC(=O)N[C@@H](Cc1c[nH]cn1)C(=O)N[C@@H](Cc1c[nH]cn1)C(=O)N[C@@H](Cc1c[nH]cn1)C(=O)N[C@@H](Cc1c[nH]cn1)C(=O)N[C@@H](Cc1ccc(O)cc1)C(=O)N[C@@H](CCCNC(=N)N)C(=O)N1CCC[C@H]1C(=O)O [AP-9] (H-YKLPGHHHHYRP-OH; N-terminus and C-terminus assumed),not affected,capable of inhibiting coronavirus,32,15.6 ± 0 µg/mL,31.3 ± 0 µg/mL,,,,
"Nc1nc(O)c2ncn(COC(CO)CO)c2n1 [Ganciclovir, ganciclovir]",,,,,,> 6000 µg/mL,> 6000 µg/mL,,
"AP-1: high-affinity peptide antagonist targeting HAb18G/CD147, amino acid sequence SEQ ID NO:3 (MTHDPVISLPTT)",not affected,capable of inhibiting coronavirus,16,,,,,31.25 ± 0 µg/mL,62.25 ± 0 µg/mL
"AP-6: high-affinity peptide antagonist targeting HAb18G/CD147, amino acid sequence SEQ ID NO:8 (YPFHHKHWHRPN)",not affected,capable of inhibiting coronavirus,16,,,,,31.25 ± 0 µg/mL,62.25 ± 0 µg/mL
